What was measured:
Female NOD mice [1] = test: Prevention of the progressive development of IDDM in the NOD mouse (incidence of diabetes by urine glucose and plasma glucose); type: in vivo
From the text: The non-obese diabetic (NOD) mouse has a genetic predisposition to developing IDDM, particularly among the females. Diabetes begins to appear at 12-14 weeks of age and by 30-36 weeks of age about 75-85% of female NOD's will have developed IDDM. As such, the NOD mouse provides a standard experimental model for IDDM in man which is well known and appreciated by those skilled in the art [see Lampeter, et al: Diabetologia 32, 703 (1989)]. The effect of experimental agents on the NOD mouse can thus be studied to determine whether these agents are active in inhibiting the development of diabetes.
Female NOD mice were maintained on standard laboratory rodent feed containing either 0% (Control Group) or 1% bis(3,5-di-tertiary-butyl-4-hydroxyphenylthio)methane (Treated Group) as an admixture. The mice were started on these diets at 4 weeks of age and continued until they were 24 weeks old. Each mouse was tested for diabetes at 8, 12, 14, 16, 18, 20, 22 and 24 weeks of age. Diabetic mice were detected by a positive urine glucose measurement and were confirmed by a plasma glucose level greater than 300 mg/dL. Urine glucose was determined using Diastix™ reagent strips for urinalysis (Miles Inc., Diagnostics Division, Elkhart, IN) and plasma glucose using Glucose (GDH Endpoint) Reagent™ (Seradyn, Inc., Indianapolis, IN).
Mice were counted as diabetic if a positive urine glucose and plasma glucose greater than 300 mg/dL were determined on 3 consecutive measurements. If mice were determined to be diabetic for 1 or 2 consecutive measurements and then died with physical indications of IDDM such as severe weight loss, these mice were also counted as diabetic.
At 24 weeks of age, 30 of 61 mice in the Control Group (49%) had become diabetic compared to 2 of 51 mice in the Treated Group (4%).
The treated, nondiabetic mice (N=38) not sacrificed at 24 weeks of age were switched to control diet and monitored, along with the 21 remaining controls, for 24 more weeks. During this period, 13 of 21 (62%) controls and 13 of 38 (34%) previously treated mice developed diabetes (p=0.04). Combining the two 24 week study periods, the percentage of mice that developed diabetes among the controls was 81% (51% of the controls were nondiabetic after 24 weeks of study and 38% of these were still nondiabetic after 24 more weeks for an overall total of 19% nondiabetic control animals). Among the group treated for 24 weeks the percentage of mice that developed diabetes after 48 weeks of study was 37% (96% were nondiabetic after 24 weeks and 66% of these were still nondiabetic 24 weeks after stopping treatment).

Female NOD mice [2] = test: Pancreatic histopathology of NOD mice at 24 weeks of age (hematoxylin and eosin, immunoperoxidase for insulin); type: in vivo, NOD mouse; settings: 1% in feed
From the text: At 24 weeks of age, randomly selected control (N=10) and treated (N=10) nondiabetic mice and all surviving diabetic control (N=15) and treated (N=1) mice were sacrificed. Pancreata were collected and stored in formalin, processed, embedded, and sectioned by standard histological methods. Sections stained with hemotoxylin and eosin or by immunoperoxidase for insulin (as a marker for the presence of β-cells) were examined light microscopically. […]

[3] = Clinical Status Diabetic, 1 mouse
[4] = Clinical Status Nondiabetic, 10 mice

CC(C)(C)c1cc(SCSc2cc(C(C)(C)C)c(O)c(C(C)(C)C)c2)cc(C(C)(C)C)c1O [Bis(3,5-di-tertiary-butyl-4-hydroxyphenylthio)methane] was tested, and the “percentage of mice that developed diabetes” value (Female NOD mice [1]; after 48 weeks of study, group treated for 24 weeks, two 24 week periods combined, controls 81%) was 37%, the treated mice nondiabetic (Female NOD mice [1]; at 24 weeks of age / after 24 weeks of study, 1% in feed, controls 51%) was 96% and the “mice that had become diabetic” value (Female NOD mice [1]; at 24 weeks of age, 1% in feed as an admixture from 4 to 24 weeks of age, Control Group 30 of 61) was 2 of 51. The “mice that had become diabetic (percentage)” value (Female NOD mice [1]; at 24 weeks of age, 1% in feed from 4 to 24 weeks of age, Control Group 49%) was 4%, the “still nondiabetic 24 weeks after stopping treatment” value (Female NOD mice [1]; of the mice nondiabetic after 24 weeks of treatment, controls 38%) was 66% and the “previously treated mice that developed diabetes” value (Female NOD mice [1]; treated nondiabetic mice switched to control diet at 24 weeks of age, monitored 24 more weeks, controls 13 of 21, p=0.04) was 13 of 38. The “previously treated mice that developed diabetes (percentage)” value (Female NOD mice [1]; treated nondiabetic mice switched to control diet at 24 weeks of age, monitored 24 more weeks, controls 62%, p=0.04) was 34%, the Atrophy (Female NOD mice [2]; [3]) was 1 number of mice and the Insulitis (Female NOD mice [2]; [3]) was 1 number of mice. The “β-Cells Present” value (Female NOD mice [2]; [3]) was 1 number of mice, the Atrophy (Female NOD mice [2]; [4]) was 2 number of mice and the Insulitis (Female NOD mice [2]; [4]) was 9 number of mice.

Reference: patent EP0504807B1, “Use of bis-(p-hydroxyphenylthio)methane derivatives to inhibit progressive development of insulin-dependent diabetes mellitus” (MERRELL PHARMACEUTICALS INC., priority 1991, dated 1992)
